Test results reported in US12662676B2, “Aptamer nucleic acid molecule, and complex and application thereof” (EAST CHINA UNIVERSITY OF SCIENCE AND TECHNOLOGY, priority 2019, dated 2026).

Experiment: Fluorescence activation of III-3 fluorophore by Pepper aptamers and mutants
Type: biochemical
Conditions: Activation of III-3 by Pepper mutants with single mutation; 1 μM III-3 with 5 μM RNA
Experimental: Preparation of Pepper or Pepper mutant aptamer according to the commonly used experimental method (1). 5 μM aptamer and 1 μM fluorophore were incubated in the detection buffer (40 mM HEPES, pH 7.4, 125 mM KCl, 5 mM MgCl2, 5% DMSO). The maximal excitation and emission peaks of the aptamer-fluorophore complexes were determined using a Synergy Neo2 multifunctional microplate reader. The fluorescence intensities of the aptamer-fluorophore complexes at the maximal excitation and emission peaks were determined using a Synergy Neo2 multifunctional microplate reader. The control sample (1 μM fluorophore without aptamer) was also measured under the same conditions. Then the ratios of fluorescence intensity were calculated. For example, the fluorescence maximal excitation and emission peaks of the complex of 5 μM F30-Pepper-2 and 1 μM III-3 fluorophore are 485 nm and 530 nm, respectively. The fluorescence intensity of the complex at 485±10 nm excitation and 530 nm±10 nm emission was 36,000, the fluorescence intensity of the control sample (1 μM III-3 fluorophore only) under the same detection conditions was 10. Thus, the activation ratio of F30-Pepper-2 aptamer on III-3 fluorophore was 3,600-fold.
In order to detect the fluorescence activation of III-3 fluorophore by different Pepper mutant, the Pepper-1 sequence in F30-Pepper-1 was mutated according to Table 1. […] 1 μM III-3 was incubated with […] RNA and their fluorescence activation folds were determined according to the commonly used experimental method (5). […] In summary, many Pepper mutants containing single and multiple mutants still retain the ability to activate the fluorescence of III-3 fluorophore.
In order to detect the activation of III-3 by modified Pepper, base-modified Pepper-3 was synthesized (SEQ ID NO: 6, the underlined nucleotides in […] GGCC contain deoxyribonucleotide bases) and Pepper-4 (SEQ ID NO: 7, the underlined nucleotides in […] GGGCC contain 2′-F modification) (synthesized by Shanghai GenePharma Co., Ltd), which contain deoxyribonucleotides replacement (shaded bases in FIG. 5A) or 2′-F modification (shaded bases in FIG. 5B) in the stem-loop region of Pepper. Detection of the fluorescence activation of III-3 fluorophore by these modified Peppers was carried out according to the commonly used experimental method (5).

| Substance | Activation folds |
| --- | --- |
| G13C: F30-Pepper-1 mutant aptamer (NCCAAUCGUGGCCUGUCGNNNACUGGCGCCGN; RNA, backbone, methylation of C and the base at N not given here; Pepper aptamer mutant embedded in F30 scaffold) [Compound G13C] | 1758 folds |
| G18C: F30-Pepper-1 mutant aptamer (NCCAAUCGUGGCGUGUCCNNNACUGGCGCCGN; RNA, backbone, methylation of C and the base at N not given here; Pepper aptamer mutant embedded in F30 scaffold) [Compound G18C] | 1028 folds |
| G18U: F30-Pepper-1 mutant aptamer (NCCAAUCGUGGCGUGUCUNNNACUGGCGCCGN; RNA, backbone, methylation of C and the base at N not given here; Pepper aptamer mutant embedded in F30 scaffold) [Compound G18U] | 1024 folds |
| G28U: F30-Pepper-1 mutant aptamer (NCCAAUCGUGGCGUGUCGNNNACUGGCUCCGN; RNA, backbone and the base at N not given here; Pepper variant inserted in F30 scaffold RNA) [Compound G28U] | 873 folds |
| U6A: F30-Pepper-1 mutant aptamer (NCCAAACGUGGCGUGUCGNNNACUGGCGCCGN; RNA, backbone and the base at N not given here; Pepper variant inserted in F30 scaffold RNA) [Compound U6A] | 1872 folds |
| U6C: F30-Pepper-1 mutant aptamer (NCCAACCGUGGCGUGUCGNNNACUGGCGCCGN; RNA, backbone and the base at N not given here; Pepper variant inserted in F30 scaffold RNA) [Compound U6C] | 2088 folds |
| U9A: F30-Pepper-1 mutant aptamer (NCCAAUCGAGGCGUGUCGNNNACUGGCGCCGN; RNA, backbone and the base at N not given here; Pepper variant inserted in F30 scaffold RNA) [Compound U9A] | 2124 folds |
| U14A: F30-Pepper-1 mutant aptamer (NCCAAUCGUGGCGAGUCGNNNACUGGCGCCGN; RNA, backbone and the base at N not given here; Pepper variant inserted in F30 scaffold RNA) [Compound U14A] | 1524 folds |

Same assay, conditions: deoxyribonucleotide or 2′-F modification in stem-loop region

| Substance | fluorescence activation of III-3 by base-modified Pepper |
| --- | --- |
| Pepper-3: base-modified Pepper, SEQ ID NO: 6, deoxyribonucleotides replacement in the stem-loop region (GGCCCCCAAUCGUGGCGUGUCGGCCUGCUUCGGCAGGCACUGGCGCCGGGGCC; deoxyribonucleotides at some stem-loop positions, underlined positions not recoverable, further chemistry not given here) | significantly activate the fluorescence of III-3 fluorophore |
| Pepper-4: base-modified Pepper, SEQ ID NO: 7, 2′-F modification in the stem-loop region (GGCCCCCCAAUCGUGGCGUGUCGGCCUGCUUCGGCAGGCACUGGCGCCGGGGGCC; 2'-fluoro at some stem-loop positions, underlined positions not recoverable, further chemistry not given here) | significantly activate the fluorescence of III-3 fluorophore |
